Results reported in patent US20210077585A1, “METHOD OF TREATMENT OF IMMUNE CHECKPOINT INHIBITOR-RELATED IMMUNE ADVERSE EFFECTS” (priority 2019, published 2021).
“Also recorded” adds a separate entry of the source. No end group written: not given here.

Assays:
[1] = test system: murine dextran sodium sulfate (DSS)-induced colitis; assay: Dextran sodium sulfate (DSS)-induced colitis in mice; type: in vivo, C57BL6 mice
Procedure: (§1) Inbred C57BL6 mice, 8 to 12 weeks old, were purchased from Charles River Breeding Laboratories (Calco, Italy). Experiments were performed following protocols approved by the institutional animal committee and in accordance with European Economic Community Council Directive as well as institutional animal care and use guidelines.
DSS is a water soluble, negatively charged sulfated polysaccharide with a highly variable molecular weight ranging from 5 to 1400 kDa. Murine colitis results from administration of 40-50 kDa DSS added to drinking water. […] We have added 40-50 kDa DSS to sterilized drinking water at 3% for a period of 6 days to induce acute colitis. Concomitantly, Tα1 at 200 μg/kg was intraperitoneally injected daily, as illustrated in FIG. 1A. Control mice receive vehicle alone. Surviving mice were sacrificed at 10 days after the initiation of colitis.
(§2) In both models, animals were monitored daily for appearance of diarrhea, fecal blood, loss of body weight and survival. At the end of the experiment, surviving mice were sacrificed, the colon was excised, and evaluated for macroscopic damage and local immune parameters
(§3) Freshly isolated colons were fixed in formalin and embedded in paraffin. H&E staining was performed using a standard protocol. For the quantitative histological analysis, five criteria were used to grade each section of the intestine: (i) severity of inflammation, (ii) percent of area affected by inflammation, (iii) degree of hyperplasia, (iv) depth of the lesion, and (v) ulceration.
The levels of cytokines in the colon homogenates were determined by specific ELISA (R&D Systems).
(§4) Student's t-test, one- or two-way ANOVA with Bonferroni post-hoc test were used to determine the statistical significance. Significance was defined as p<0.05. Data are pooled results (mean±SEM) or representative images from three experiments.

[2] = test system: murine model of checkpoint inhibitor-mediated colitis (CIC); assay: Checkpoint inhibitor-mediated colitis (CIC) model (DSS + anti-CTLA-4 mAb) in mice; type: in vivo, C57BL6 mice
Procedure: as §1
The mice received 3% DSS in their drinking water for 8 days and 100 μg of anti-CTLA-4 mAb (BioXcell, USA) or isotype control antibody intraperitoneally at the beginning of the experiment (day 0) and 4 days after (day +4). Surviving mice were sacrificed at 16 days. Tα1 at 200 μg/kg was intraperitoneally injected every other day, as illustrated in FIG. 2A.
as §2, §3, §4

B16 melanoma = assay: Tumor challenge with B16 melanoma under anti-CTLA-4 mAb; type: in vivo, mice; conditions: 100 μg anti-CTLA-4 mAb days 0, 6, 10 with Tα1 200 μg/kg i.p.; FIG. 2E
Procedure: B16-F0 (ATCC® CRL-6322™ were cultured in RPMI Medium1640 (Gibco, Life Technologies, USA) containing 10% FBS (Gibco, USA), 100 U/mL penicillin, and 100 μg/mL streptomycin, at 37° C. in a humidified atmosphere of 5% CO2. 2×10^5 B16 tumor cells were subcutaneously injected into the right flanks of the mice. The mice were injected intraperitoneally with 100 μg of anti-CTLA-4 mAb, at 0, 6, and 10 days post-tumor implantation and concomitantly with Tα1 at 200 μg/kg intraperitoneally. Tumor size was measured with a caliper and calculated as described (Wang et al., 2019).

[3] = steroid and infliximab refractory cases; recent reports; cited from earlier work
[4] = ELISA of colon homogenates, FIG. 1F

Thymosin alpha 1 (Ac-SDAAVDTSSEITTKDLKEKKEVVEEAEN; UniProt P06454 2-29, looked up) [Tα1, naturally-occurring polypeptide of 28 amino acid; from CRIBI Biotechnology, supplied as purified sterile, lyophilized, acetylated polypeptide]
loss of body weight ([1]; 3% DSS 6 days, Tα1 200 μg/kg intraperitoneally daily, FIG. 1B): prevented the loss of body weight | production of IL-10 in the colon ([1]; ELISA of colon homogenates, FIG. 1E): induced | production of pro-inflammatory cytokine IL-1S [1, 4]: decreased the production | production of pro-inflammatory cytokine IL-17A [1, 4]: decreased the production | expression of IDO1 in the colon ([1]; RT-PCR, at sacrifice, FIG. 1E): induced the expression of IDO1 | survival of mice ([1]; Tα1 200 μg/kg i.p. daily, FIG. 1C): increased survival of mice | colon histopathology ([1]; Tα1 200 μg/kg i.p. daily, at sacrifice, FIG. 1D): ameliorated colon histopathology | loss of body weight ([2]; CIC model (3% DSS 8 days + anti-CTLA-4 mAb), Tα1 200 μg/kg i.p. every other day, FIG. 2B): not significantly prevented | survival of mice ([2]; CIC model, Tα1 200 μg/kg i.p. every other day, FIG. 2C): significantly increased the survival of mice | architecture structure of the colon in surviving mice ([2]; CIC model, compared to untreated animals, FIG. 2D): recovery of the normal architecture structure of the colon | mice surviving at 16 days post initiation of colitis ([2]; CIC model, time at which untreated mice have all died, FIG. 2C): majority of mice surviving | growth kinetics of B16 melanoma tumors / antitumoral efficacy afforded by anti-CTLA-4 mAb (B16 melanoma): does not affect the antitumoral efficacy; also recorded: did not affect the growth kinetics of the tumors

Vedolizumab: therapy reported as more gut specific and efficacious in steroid and infliximab refractory checkpoint inhibitor colitis
efficacy in refractory CIC [3]: efficacious in steroid and infliximab refractory cases
